Test system: 926638-142-R-J1-PDC complex spheroid viability
Assay: Anticancer human tumor 926638-142-R-J1-PDC patient-derived endometrial carcinoma cell line growth inhibition [POLQ]
Conditions: for IC50: curve of first compound; for viability, T/C: stronger effect = lower value; active means viability on the fitted dose curve at most 10% of control; inactive means the rest
Method in brief: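 Growth inhibition in 3D: complex spheroids (tumor PDC, HUVEC, MSC) treated with POLQ inhibitor combinations; where Cmax unknown, highest tested concentration 10 microM, except SN-38 at 1 microM.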

[1] = second compound 0.0316 µM, first compound 0.0316 µM
[2] = second compound 0.0316 µM, first compound 0.1 µM
[3] = second compound 0.0316 µM, first compound 0.316 µM
[4] = second compound 0.0316 µM, first compound 1 µM
[5] = second compound 0.0316 µM, first compound 3.16 µM
[6] = second compound 0.0316 µM, first compound 10 µM
[7] = second compound 0.1 µM, first compound 0.0316 µM
[8] = second compound 0.1 µM, first compound 0.1 µM
[9] = second compound 0.1 µM, first compound 0.316 µM
[10] = second compound 0.1 µM, first compound 1 µM
[11] = second compound 0.1 µM, first compound 3.16 µM
[12] = second compound 0.1 µM, first compound 10 µM
[13] = second compound 0.316 µM, first compound 0.0316 µM
[14] = second compound 0.316 µM, first compound 0.1 µM
[15] = second compound 0.316 µM, first compound 0.316 µM
[16] = second compound 0.316 µM, first compound 1 µM
[17] = second compound 0.316 µM, first compound 3.16 µM
[18] = second compound 0.316 µM, first compound 10 µM
[19] = second compound 1 µM, first compound 0.0316 µM
[20] = second compound 1 µM, first compound 0.1 µM
[21] = second compound 1 µM, first compound 0.316 µM
[22] = second compound 1 µM, first compound 1 µM
[23] = second compound 1 µM, first compound 3.16 µM
[24] = second compound 1 µM, first compound 10 µM
[25] = second compound 3.16 µM, first compound 0.0316 µM
[26] = second compound 3.16 µM, first compound 0.1 µM
[27] = second compound 3.16 µM, first compound 0.316 µM
[28] = second compound 3.16 µM, first compound 1 µM
[29] = second compound 3.16 µM, first compound 3.16 µM
[30] = second compound 3.16 µM, first compound 10 µM
[31] = second compound 10 µM, first compound 0.0316 µM
[32] = second compound 10 µM, first compound 0.1 µM
[33] = second compound 10 µM, first compound 0.316 µM
[34] = second compound 10 µM, first compound 1 µM
[35] = second compound 10 µM, first compound 3.16 µM
[36] = second compound 10 µM, first compound 10 µM
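Further: spheroids exposed to drugs for one week before readout.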
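Wherever viability, T/C is given: percent viability relative to DMSO vehicle control wells set as 100%.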

COc1cc2cc(C(=O)CCC(=O)O)sc2cc1OC + Cc1cccc(N(C)C(=O)C2C(O)CCN2c2nc(C)cc(C(F)(F)F)c2C#N)c1
inactive: viability, T/C [1] 101% | viability, T/C [2] 92.9% | viability, T/C [3] 110% | viability, T/C [4] 96.2% | viability, T/C [5] 98.3% | viability, T/C [6] 77.4% | viability, T/C [7] 104% | viability, T/C [8] 98.4% | viability, T/C [9] 99.7% | viability, T/C [10] 87.1% | viability, T/C [11] 83.2% | viability, T/C [12] 80.3% | viability, T/C [13] 119% | viability, T/C [14] 115% | viability, T/C [15] 109% | viability, T/C [16] 84.4% | viability, T/C [17] 98.2% | viability, T/C [18] 88.7% | viability, T/C [19] 99.8% | viability, T/C [20] 111% | viability, T/C [21] 76.9% | viability, T/C [22] 85.8% | viability, T/C [23] 94% | viability, T/C [24] 90.1% | viability, T/C [25] 79.5% | viability, T/C [26] 95.5% | viability, T/C [27] 99.5% | viability, T/C [28] 76.5% | viability, T/C [29] 110% | viability, T/C [30] 94.6% | viability, T/C [31] 79.5% | viability, T/C [32] 95.7% | viability, T/C [33] 94.5% | viability, T/C [34] 87.2% | viability, T/C [35] 104% | viability, T/C [36] 79.9%
> 10 µM: IC50 (second compound 0.0316 µM) | IC50 (second compound 0.1 µM) | IC50 (second compound 0.316 µM) | IC50 (second compound 1 µM) | IC50 (second compound 3.16 µM) | IC50 (second compound 10 µM)

O=C(Nc1ccc(O)c(NS(=O)(=O)c2ccc(F)cc2)c1)c1ccc(-c2ccccc2)cc1 + Cc1cccc(N(C)C(=O)C2C(O)CCN2c2nc(C)cc(C(F)(F)F)c2C#N)c1
> 10 µM: IC50 (second compound 0.0316 µM) | IC50 (second compound 0.1 µM) | IC50 (second compound 0.316 µM) | IC50 (second compound 1 µM) | IC50 (second compound 3.16 µM) | IC50 (second compound 10 µM)
inactive: viability, T/C [1] 93.9% | viability, T/C [2] 93.2% | viability, T/C [3] 91.6% | viability, T/C [4] 91% | viability, T/C [5] 90.5% | viability, T/C [6] 62.5% | viability, T/C [7] 104% | viability, T/C [8] 78.6% | viability, T/C [9] 81.2% | viability, T/C [10] 94% | viability, T/C [11] 90.1% | viability, T/C [12] 62.5% | viability, T/C [13] 94.3% | viability, T/C [14] 105% | viability, T/C [15] 86.6% | viability, T/C [16] 87.8% | viability, T/C [17] 94.5% | viability, T/C [18] 67.2% | viability, T/C [19] 90.3% | viability, T/C [20] 94.8% | viability, T/C [21] 88.1% | viability, T/C [22] 96.9% | viability, T/C [23] 85.6% | viability, T/C [24] 73.1% | viability, T/C [25] 79.6% | viability, T/C [26] 91.5% | viability, T/C [27] 82.1% | viability, T/C [28] 97.6% | viability, T/C [29] 95.7% | viability, T/C [30] 68.5% | viability, T/C [31] 79.1% | viability, T/C [32] 75.8% | viability, T/C [33] 74.6% | viability, T/C [34] 78.7% | viability, T/C [35] 80.7% | viability, T/C [36] 55.7%

COc1cccc2c1C(=O)c1c(O)c3c(c(O)c1C2=O)CC(O)(C(=O)CO)CC3OC1CC(N)C(O)C(C)O1 (stereo unspecified) + Nc1ccc(C#CCN(C(=O)Cc2ncc(C(F)(F)F)cc2C(F)(F)F)c2ccc(F)cc2)nn1
0.15 µM: IC50 (second compound 1 µM)
0.127 µM: IC50 (second compound 10 µM)
0.14 µM: IC50 (second compound 0.1 µM)
active: viability, T/C [4] 8.06% | viability, T/C [5] 0.22% | viability, T/C [6] 0.4% | viability, T/C [10] 6.81% | viability, T/C [11] 0.22% | viability, T/C [12] 0.36% | viability, T/C [16] 7.2% | viability, T/C [17] 0.19% | viability, T/C [18] 0.51% | viability, T/C [22] 7.01% | viability, T/C [23] 0.23% | viability, T/C [24] 0.29% | viability, T/C [28] 7.1% | viability, T/C [29] 0.27% | viability, T/C [30] 0.31% | viability, T/C [34] 3.99% | viability, T/C [35] 0.31% | viability, T/C [36] 0.43%
0.118 µM: IC50 (second compound 3.16 µM)
inactive: viability, T/C [1] 86.7% | viability, T/C [2] 69.4% | viability, T/C [3] 25.7% | viability, T/C [7] 90.7% | viability, T/C [8] 59.6% | viability, T/C [9] 26.1% | viability, T/C [13] 78.7% | viability, T/C [14] 58.9% | viability, T/C [15] 26.5% | viability, T/C [19] 89% | viability, T/C [20] 62.4% | viability, T/C [21] 27.4% | viability, T/C [25] 80.6% | viability, T/C [26] 54.4% | viability, T/C [27] 23.2% | viability, T/C [31] 74% | viability, T/C [32] 57.6% | viability, T/C [33] 20.7%
0.137 µM: IC50 (second compound 0.316 µM)
0.167 µM: IC50 (second compound 0.0316 µM)
